Assay [1] deals with chloroquine-resistant P. falciparum Dd2. Description: SYBR Green I-based fluorescence assay, intraerythrocytic growth inhibition. Format: cell-based, Plasmodium falciparum. The settings on record: for IC50 / IC90: P. falciparum Dd2, 72 h. As for the experimental part:
Ten millimolar compound stocks in DMSO were diluted by ½, ⅕, and/or 1/10 fold dilutions in ultrapure water or RPMI 1640. Varying concentrations of compound were added to culture at a 1% parasitemia and 2% hematocrit in 96-well black plates. Assay conditions maintained maximum DMSO concentrations less than 0.125% per dilution. Positive (baseline 0% growth) controls consisted of Chloroquine at 1 μM final concentration. Following 72 h incubation at 37° C. in 5% CO2, dilution plates were frozen at −80° C. for a minimum of 30 minutes. Dilution plates were allowed to thaw followed by lysis treatment and SYBR Green I incorporation. DNA quantification was determined using a fluorescence reading on a Synergy H4 multimode plate reader set at 485 nm excitation and 530 nm emission as previously reported (Roberts, Iyamu et al. 2016). EC50 was calculated from a dose response curve that was generated from a concentration range of 0-10 μM using GraphPad Prism v5.0.
Different dilutions of the compound/fraction in 1 μl of the culture medium were added to 99 μl of P. falciparum culture at a 1% parasitemia and 2% hematocrit in 96-well plates. Maximum DMSO concentration in the culture never exceeded 0.125%. Chloroquine at 1 μM was used as a positive control to determine the baseline value. Following 72 hours incubation at 37° C., the plates were frozen at −80° C. After thawing, 100 μL of lysis buffer (with SYBR Green I dye 1:10,000) was added to each well and plates were incubated at room temperature for 30 minutes prior to reading.
80 compounds were screened for their ability to inhibit the intraerythrocytic growth of chloroquine-resistant P. falciparum Dd2 using a SYBR Green I-based fluorescence assay at 1 μM.
(§1) 7 hit compounds and 17 mammalian Aurora A and B inhibitors in clinical trial were screened by SYBR Green I-based fluorescence assay to determine IC50 values in chloroquine-resistant P. falciparum Dd2 and the cytotoxicity was evaluated in 3T3 Mouse fibroblast cells using MTS cytotoxicity assay. The results of the top 2 ASINEX library compounds and 3 commercially available mammalian Aurora A and B inhibitors are shown in Table 1 below with noted structures provided in FIG. 16.

The subject of assay [2] is 3T3 Mouse fibroblast cells. Description: MTS cytotoxicity assay. Format: cell-based. Conditions: for Selectivity Index: 3T3 EC50 versus Dd2 IC50; for EC50 / EC90: cytotoxicity, 3T3 mouse fibroblast cells. As for the experimental part: The intraerythrocytic development of the malaria parasite diverges from the paradigm of eukaryotic cell cycle. Novelty of the Plasmodium cell cycle offers opportunities for development of therapeutics directed against essential components. […] Essential Plasmodium Aurora-related kinases (Arks) 1, 2, and 3 are homologous to Aurora A and B, Ser/Thr kinases involved in cell division. […] To discover potent and selective small molecule inhibitors of PfArks, screening was conducted of a library of optimized mammalian Aurora kinase inhibitors that have evolved from a general pharmacophore models for Ser/Thr kinases. In addition, we are also repurposing human Aurora kinase inhibitors to discover antimalarial lead compounds. Novel potent inhibitors (EC50<1 μM) were identified in cell-based screening using SYBR Green I fluorescence based assay. Selectivity of the hits against mammalian cells were determined using the MTS ((3-(4,5 dimethylthiazol-2-yl)-5-(3-carboxymethoxyphenyl)-2-(4-sulfophenyl)-2H-tetrazolium, inner salt) cell proliferation assay. Results from our studies to assess structure-activity-relationship, specificity of inhibition, and cellular effects of the compounds will be presented.
as §1

The subject of the next assay is PfArk2. Description: γ-P32 ATP utilization kinase assay with MBP as substrate. Format: biochemical, Plasmodium falciparum. Conditions: GST-tagged PfArk2 2.5 μg, MBP 2.5 μg, autoradiogram (FIG. 17B). As for the experimental part:
GST-tagged PfArk2 was purified using affinity chromatography (FIG. 17A). Compounds were added to a standard kinase assay at indicated concentrations against PfArk-2 (2.5 μg) in a γ-P^32 ATP utilization assay with MBP (2.5 μg) as substrate (FIG. 17B). Upper panels show Coomassie Blue-stained gel and the lower panel is the corresponding autoradiogram.

Setting [3] is: P. falciparum Dd2, compound at 1 μM, 72 h.

For the molecule `COc1cc2c(Nc3ccc(NC(=O)c4ccccc4)cc3)ncnc2cc1OCCCN1CCOCC1` [DC-0005146, ZM-447439], in assay [1], the concentration for half-maximal inhibition (IC50) (usually the concentration needed to halve the response being measured) stood at 1020 nM and the IC90 (commonly the concentration needed for an effect of 90%) came out at 4320 nM. Also, the “% inhibition (1 μM)” value in assay [1] (setting [3]) is reported as 75%. Also, in assay [2], the “Selectivity Index” value is on record as 3.7; the EC50 (as a rule, the midpoint of the concentration-response curve) worked out at 3780 nM; the EC90 (commonly the concentration at which the effect reaches the 90% level) stood at 11700 nM. Moreover, the “Inhibition of PfArk2 activity” value with PfArk2 was “not particularly effective in inhibiting PfArk2 activity”.
As to `CCn1cc(-c2ccnc3[nH]c(-c4cccc(CN(C)C)c4)cc23)c(-c2ccc(NC(=O)N(C)C)cc2)n1` [DC-0005154, GSK-1070916], in assay [1] (Plasmodium falciparum), the IC50 amounted to 441 nM and the IC90 stood at 1720 nM. Further, the inhibition (commonly the relative decrease from the control value, in per cent) at 1 µM in assay [1] (Plasmodium falciparum, P. falciparum Dd2, compound at 1 μM, 72 h) is 87%. In assay [2], the “Selectivity Index” value was determined as 13.5, the EC50 was 5970 nM and the 90% effect level (EC90) was put at 15900 nM. The “Inhibition of PfArk2 activity” value in the assay with PfArk2 is “not particularly effective in inhibiting PfArk2 activity”.
For BI-847325 [DC-0005156], in assay [1], the IC50 was determined as 530 nM and the IC90 was 2000 nM. The “% inhibition (1 μM)” value in assay [1] (setting [3]) was determined as 93%. Besides, in assay [2], the “Selectivity Index” value was 2.5, the EC50 turned out to be 1310 nM and the EC90 was more than 26700 nM.

For the origin of these results see patent US11072587B2, “Administration of aurora kinase inhibitors for anti-malarial therapy” (University of Central Florida Research Foundation, Inc., priority 2017, dated 2021).
